Data taken from article PMC9636434, “Discovery of small molecule agonists of the Relaxin Family Peptide Receptor 2” (Communications Biology, 2022).
Where “and” joins values, the source holds several entries; their conditions need not be identical. Identical values can stand only once. Entries after “also recorded” stand apart in the source; their conditions may differ.

Key:
[1] = system: chimera RXFP2-1 (extracellular domain of RXFP2, transmembrane domain of RXFP1); assay: HTRF cAMP assay in HEK293T cells transiently transfected with chimera RXFP2-1; assay type: cell-based, human
Experimental: Fig. 2 6641 is an allosteric agonist of RXFP2. a HEK-RXFP2 cells co-treated with serial dilutions of INSL3 B dimer antagonist and 30 nM INSL3 or 0.28 µM 6641. HTRF cAMP dose-response inhibition curves were normalized to activity without antagonist co-treatment as 0% inhibition. b HTRF cAMP assay in HEK293T cells transiently transfected with WT or chimeric receptors. Chimera RXFP2-1 contains the extracellular domain of RXFP2 and the transmembrane domain of RXFP1, while chimera RXFP1-2 contains the extracellular domain of RXFP1 and the transmembrane domain of RXFP2. For each receptor, cAMP response induced by INSL3 and 6641 was normalized to FSK (2 µM) as 100% efficacy and DMSO vehicle as 0% efficacy. Emax and EC50 were calculated using four parameter nonlinear fit dose-response curves. Results are expressed as mean ± SEM of 3 independent experiments. Diagrams of the chimeric receptors were produced using GPCRdb.org[58], [59].
Complementary RXFP2-1 and RXFP1-2 chimeric receptors were used to further investigate the involvement of the RXFP2 extracellular and transmembrane domains on 6641 activity. RXFP2-1 has the extracellular domain of RXFP2 and transmembrane domain of RXFP1, and RXFP1-2 is its complement.
The HTRF Gs dynamic cAMP assay kit (CisBio, Bedford, MA) was used to measure intracellular cAMP accumulation in HEK293T cells (ATCC, Manassas, VA)[56]. […] The cell stock was verified mycoplasma free and authenticated by ATCC. Transient transfection was accomplished by treating cells in a 6-well plate with a mixture of 2 μg plasmid and 6 μL Lipofectamine 2000 (Invitrogen, Waltham, MA) per manufacturer’s protocol and incubating overnight. For cAMP measurement in 96-well format, HEK293T cells stably transfected with human RXFP2 (HEK-RXFP2), human RXFP1 (HEK-RXFP1), mouse Rxfp1 (HEK-Rxfp1) or transiently transfected with human RXFP1-RXFP2 chimeric receptors were seeded between 7500 and 30,000 cells per well, depending on cell line responsiveness, in serum-free DMEM medium and incubated overnight at 37 °C, 5% CO2. After 18 h, cells were treated with a titration of compound, 2 μM forskolin, or DMSO vehicle. Control wells were also treated with a titration of INSL3 (Phoenix Pharmaceuticals, Burlingame, CA) or human recombinant relaxin 2 (Peprotech, Cranbury, NJ). For the RXFP2 antagonist experiment, cells were co-treated with 0.28 μM compound or 30 nM INSL3 and a titration of the INSL3 B dimer antagonist[38],[39]. For the INSL3 allosteric modulation experiment, cells were co-treated with 0.025, 0.0025, or 0.00025 μM of compound and a titration of INSL3. […] Plates were incubated for 1 h at room temperature and the signal was read on a CLARIOstar plate reader (BMG Labtech, Ortenberg, Germany) at 665 and 620 nm emission wavelengths.

human ADORA1 = target: T1, human ADORA1 (Homo sapiens, UniProt P30542); assay: PRESTO-Tango β-arrestin recruitment, ADORA1 transfected HTLA cells; assay type: cell-based; conditions: for RLU: replicates (1)-(4)
T1 sequence (P30542 1-326): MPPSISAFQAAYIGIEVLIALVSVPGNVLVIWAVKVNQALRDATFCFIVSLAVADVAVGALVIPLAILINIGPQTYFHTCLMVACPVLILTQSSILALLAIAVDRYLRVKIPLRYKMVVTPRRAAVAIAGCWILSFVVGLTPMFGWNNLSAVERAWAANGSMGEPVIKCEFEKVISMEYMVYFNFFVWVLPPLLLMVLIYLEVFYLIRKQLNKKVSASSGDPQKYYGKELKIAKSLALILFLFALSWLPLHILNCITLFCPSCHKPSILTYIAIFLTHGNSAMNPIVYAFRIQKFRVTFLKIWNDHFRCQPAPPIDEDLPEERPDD

[2] = follow-up test using multiple compound concentrations

O=C1Nc2ccc(-c3cc(C(F)(F)F)cc(C(F)(F)F)c3)cc2C(=O)N2CCN(C(=O)COc3ccc(OC(F)(F)F)cc3I)C[C@@H]12 [compound 6641]
EC50 (1)-(3) ([1]; 6641, individual experiments): Inactive | EC50 (AVERAGE) ([1]; 6641, mean of 3): Inactive | Emax (1)-(3) ([1]; individual experiments, FSK (2 µM) = 100% efficacy): Inactive | Emax (AVERAGE) ([1]; mean (± SEM) of 3, FSK (2 µM) = 100% efficacy): Inactive; also recorded: did not stimulate cAMP production | β-arrestin recruitment, ADORA1 (mean ± SEM) (human ADORA1; 10 µM compound, basal level of detection 3-fold RLU): 3.92 ± 0.15 fold RLU | RLU (human ADORA1; Log [M] -4.52): 12779.2 RLU and 12694.9 RLU | RLU (human ADORA1; Log [M] -5): 11730.3 RLU and 10165.7 RLU and 11306.6 RLU | RLU (human ADORA1; Log [M] -5.52): 8500.46 RLU and 7004.94 RLU and 7182.3 RLU and 7062.97 RLU | RLU (human ADORA1; Log [M] -6): 6700.59 RLU and 4967.56 RLU and 5863.08 RLU and 4072.06 RLU | RLU (human ADORA1; Log [M] -6.52): 3400.99 RLU and 2989.38 RLU and 3675.77 RLU and 3380.19 RLU | RLU (human ADORA1; Log [M] -7): 3045.21 RLU and 3372.53 RLU and 2679.57 RLU and 3462.3 RLU | RLU (human ADORA1; Log [M] -7.52): 2808.75 RLU and 2538.36 RLU and 2762.77 RLU and 2945.59 RLU | RLU (human ADORA1; Log [M] -8): 3154.68 RLU and 2602.94 RLU and 3418.51 RLU and 3449.16 RLU | RLU (human ADORA1; Log [M] -8.52): 2742.95 RLU and 3614.63 RLU and 3319.34 RLU and 3617.47 RLU | RLU (human ADORA1; Log [M] -9): 3242.68 RLU and 2896.28 RLU and 3413.04 RLU and 3315.08 RLU | RLU (human ADORA1; Log [M] -9.52): 3821.91 RLU and 2910.47 RLU and 2806.84 RLU and 4087.39 RLU | RLU (human ADORA1; Log [M] -10): 2500.19 RLU and 3249.78 RLU and 3509.58 RLU and 3875.86 RLU | RLU (human ADORA1; Log [M] -10.52): 3874.43 RLU and 2887.76 RLU and 2717.4 RLU and 3465.57 RLU | RLU (human ADORA1; Log [M] -11): 3657.22 RLU and 3613.21 RLU and 3589.08 RLU and 3231.32 RLU | RLU (human ADORA1; Log [M] -11.52): 2119.72 RLU and 4131.4 RLU and 3244.1 RLU and 3141.88 RLU | RLU (human ADORA1; Log [M] -12): 3765.12 RLU and 3810.55 RLU and 4489.16 RLU and 3752.34 RLU | ADORA1 β-arrestin efficacy compared with NECA (human ADORA1; [2]): much lower efficacy | concentrations at which ADORA1 responded (β-arrestin) (human ADORA1; [2]): above 1 µM
